Series [1] has as its target T1, rat histamine H3 receptor (Rattus norvegicus, UniProt Q9QYN8).
T1 construct: encoding the entire 445-amino-acid rat histamine H3 receptor; expressed in transfected cells
Kind of series: Rat H3 radioligand binding ([3H]-N-alpha-methylhistamine, CHO-A3 cell membranes, SPA). Particulars: binding constant as letter class. Put shortly: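 Scintillation proximity displacement of about 1 nM [3H]-N-alpha-methylhistamine, test compound 0.01 nM-30 μM, 4 h, room temperature, in the dark. Receptor source: rat H3 stably transfected into CHO-A3 cells, 10 μg membrane protein, Tris-HCl pH 7.4/MgCl2/BSA buffer. Nonspecific binding defined by 10 μM clobenpropit.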

The target of series [2] is T2, human H3 receptor (Homo sapiens, UniProt Q9Y5N1).
T2 construct: expressed in transfected cells
Kind of series: Human H3 radioligand binding ([3H]-N-alpha-methylhistamine, CHO cell membranes, SPA). Conditions: binding constant as letter class. A digest of the protocol: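 Scintillation proximity format: bead-proximal [3H]-N-alpha-methylhistamine (approximately 1 nM final) bound to human H3 receptor in CHO membranes was counted after 4 h at room temperature, light-protected. Buffer was pH 7.4 Tris/MgCl2/BSA; test compounds spanned 0.01 nM-30 μM; 10 μM clobenpropit set non-specific binding.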

Structures are written as SMILES. Read-outs that look alike come from different tables or passages of the source.

Broadly, the melting point is the temperature of the solid-liquid transition. The term Ki denotes the dissociation constant of the complex between target and ligand, obtained from inhibition or displacement.

T2 sequence (Q9Y5N1 whole entry): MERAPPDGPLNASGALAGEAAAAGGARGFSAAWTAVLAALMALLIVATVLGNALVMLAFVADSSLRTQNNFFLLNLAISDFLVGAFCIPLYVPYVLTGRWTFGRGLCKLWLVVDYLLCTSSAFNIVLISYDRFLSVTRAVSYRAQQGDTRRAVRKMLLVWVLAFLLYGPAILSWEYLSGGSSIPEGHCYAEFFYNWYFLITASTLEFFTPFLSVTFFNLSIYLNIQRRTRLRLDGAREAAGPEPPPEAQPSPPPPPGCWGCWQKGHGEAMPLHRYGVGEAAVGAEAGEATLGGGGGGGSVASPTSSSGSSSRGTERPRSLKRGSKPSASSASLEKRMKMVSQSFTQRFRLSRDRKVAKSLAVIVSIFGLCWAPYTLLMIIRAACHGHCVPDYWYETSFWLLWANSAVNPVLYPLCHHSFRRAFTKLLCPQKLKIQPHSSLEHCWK
T1 sequence (Q9QYN8 whole entry): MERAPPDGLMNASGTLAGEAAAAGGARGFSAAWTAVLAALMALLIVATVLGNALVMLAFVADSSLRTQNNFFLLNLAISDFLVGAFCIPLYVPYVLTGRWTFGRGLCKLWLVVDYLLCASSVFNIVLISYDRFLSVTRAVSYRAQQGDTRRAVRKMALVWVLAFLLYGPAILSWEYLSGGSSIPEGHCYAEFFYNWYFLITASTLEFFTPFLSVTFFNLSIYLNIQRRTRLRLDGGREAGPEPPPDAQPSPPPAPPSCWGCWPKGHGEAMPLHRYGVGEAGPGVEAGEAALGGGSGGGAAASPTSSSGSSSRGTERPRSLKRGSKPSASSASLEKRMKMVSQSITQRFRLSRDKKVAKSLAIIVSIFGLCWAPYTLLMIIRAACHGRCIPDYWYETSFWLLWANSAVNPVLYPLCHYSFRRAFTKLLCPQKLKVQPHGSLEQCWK

With `C[C@@H]1CCCN1CCCOc1ccc(-c2ccc(=O)n(CCO)n2)cc1` [Example 131, 2-(2-Hydroxy-ethyl)-6-{4-[3-((R)-2-methyl-pyrrolidin-1-yl)-propoxy]-phenyl}-2H-pyridazin-3-one], the melting point lay within 95 to 98 °C. Further, in series [1] (Table B, read-out: rat H3 Ki), the Ki is 0.1 to 100 nM. For the same compound, the inhibitory constant (Ki) in series [2] (Table B) lay in the range of 0.1 to 100 nM.

Take `Cn1nc(-c2ccc(OCC3CCN(C(=O)OC(C)(C)C)CC3)cc2)c2ccccc2c1=O` [Example 62, 4-[4-(3-Methyl-4-oxo-3,4-dihydro-phthalazin-1-yl)-phenoxymethyl]-piperidine-1-carboxylic acid tert-butyl ester]: the melting point lay within 167 to 169 °C. In series [1] (Table A, read-out: Rat H3 Ki), the Ki was more than 1000 nM. Moreover, the Ki in series [2] (Table A) is more than 1000 nM.

Consider `CN(CCCOc1ccc(-c2ccc(=O)[nH]n2)cc1)C1CCC1` [Example 241, 6-{4-[3-(Cyclobutyl-methyl-amino)-propoxy]-phenyl}-2H-pyridazin-3-one], for which the melting point is less than 50 °C. Also, in series [1] (Table B, read-out: rat H3 Ki), the Ki fell in the range of 101 to 500 nM. Moreover, the Ki in series [2] (Table B) was 101 to 500 nM.

As to `Cc1cc(=O)[nH]nc1-c1ccc(OC2CCN(C3CCC3)CC2)cc1` [Example 222, 6-[4-(1-Cyclobutyl-piperidin-4-yloxy)-phenyl]-5-methyl-2H-pyridazin-3-one], the melting point was more than 300 °C. Moreover, the Ki in series [1] (Table B, read-out: rat H3 Ki) lay in the range of 0.1 to 100 nM. In series [2] (Table B), this compound returned a Ki of 0.1 to 100 nM.

The compound `Cc1cc(OCCCN2CCCCC2)ccc1-c1cn[nH]c(=O)c1` [Example 233, 5-[2-Methyl-4-(3-piperidin-1-yl-propoxy)-phenyl]-2H-pyridazin-3-one] came in with a melting point of 112 to 113 °C. Moreover, the Ki in series [1] (Table B, read-out: rat H3 Ki) lay within 101 to 500 nM. Further, the Ki in series [2] (Table B) lay within 0.1 to 100 nM.

`O=C1CCC(c2ccc(OC3CCN(C4CCCC4)CC3)cc2)=NN1C1CCC1` [Example 164, 2-Cyclobutyl-6-[4-(1-cyclopentyl-piperidin-4-yloxy)-phenyl]-4,5-dihydro-2H-pyridazin-3-one] came in with a melting point of 100 to 104 °C. In series [1] (Table B, read-out: rat H3 Ki), the Ki fell in the range of 0.1 to 100 nM. The Ki in series [2] (Table B) was 0.1 to 100 nM.

Regarding `C[C@@H]1CCCN1CCCOc1ccc(C2=NNC(=O)C(C)(C)C2)cc1` [Example 179, 4,4-Dimethyl-6-{4-[3-((R)-2-methyl-pyrrolidin-1-yl)-propoxy]-phenyl}-4,5-dihydro-2H-pyridazin-3-one], the melting point was 140 to 142 °C. Also, in series [1] (Table B, read-out: rat H3 Ki), the Ki was in the range of 0.1 to 100 nM. The compound also had an inhibition constant Ki in series [2] (Table B) of 0.1 to 100 nM.

On to `O=c1ccc(-c2ccc(OC3CCN(C4CCC4)CC3)nc2)n[nH]1` [Example 141, 6-[6-(1-Cyclobutyl-piperidin-4-yloxy)-pyridin-3-yl]-2H-pyridazin-3-one], for which the melting point lay in the range of 217 to 219 °C. In series [1] (Table B, read-out: rat H3 Ki), the Ki was in the range of 0.1 to 100 nM. In addition, in series [2] (Table B), the Ki was in the range of 0.1 to 100 nM.

Compound `C[C@@H]1CCCN1CCCOc1c(F)cc(C2=NNC(=O)CC2)cc1F` [Example 186, 6-{3,5-Difluoro-4-[3-((R)-2-methyl-pyrrolidin-1-yl)-propoxy]-phenyl}-4,5-dihydro-2H-pyridazin-3-one] gave a melting point of 102 to 104 °C. For the same compound, in series [1] (Table B, read-out: rat H3 Ki), the Ki was 0.1 to 100 nM. Moreover, the Ki in series [2] (Table B) is 0.1 to 100 nM.

Take `O=C1CCC(c2ccc(OC3CCN(C4CCC4)CC3)cc2)=NN1` [Example 150, 6-[4-(1-Cyclobutyl-piperidin-4-yloxy)-phenyl]-4,5-dihydro-2H-pyridazin-3-one]: the melting point is 196 to 198 °C. For the same compound, in series [1] (Table B, read-out: rat H3 Ki), the Ki fell in the range of 0.1 to 100 nM. This compound had a Ki in series [2] (Table B) of 0.1 to 100 nM.

As for `O=c1ccc(-c2ccc(OC3CCN(C4CCCC4)CC3)cc2)n[nH]1` [Example 154, 6-[4-(1-Cyclopentyl-piperidin-4-yloxy)-phenyl]-2H-pyridazin-3-one], the melting point fell in the range of 211 to 213 °C. In addition, the Ki in series [1] (Table B, read-out: rat H3 Ki) lay within 0.1 to 100 nM. In addition, the inhibition constant (Ki) in series [2] (Table B) was in the range of 0.1 to 100 nM.

`Cn1nc(-c2ccc(OC3CCN(C4CCCC4)CC3)cc2)ccc1=O` [Example 83, 6-[4-(1-Cyclopentyl-piperidin-4-yloxy)-phenyl]-2-methyl-2H-pyridazin-3-one] had a melting point of 129 to 132 °C. For the same compound, the Ki in series [1] (Table B, read-out: rat H3 Ki) lay in the range of 0.1 to 100 nM. The compound also came in with a Ki in series [2] (Table B) of 0.1 to 100 nM.

`CC(C)n1nc(-c2ccc(OC3CCN(C4CCC4)CC3)nc2)ccc1=O` [Example 145, 6-[6-(1-Cyclobutyl-piperidin-4-yloxy)-pyridin-3-yl]-2-isopropyl-2H-pyridazin-3-one] returned a melting point of 113 to 115 °C. Moreover, in series [1] (Table B, read-out: rat H3 Ki), the Ki is 0.1 to 100 nM. Further, in series [2] (Table B), the Ki is 0.1 to 100 nM.

With `C[C@@H]1CCCN1CCCOc1ccc(C2=NNC(=O)CC2)cc1F` [Example 180, 6-{3-Fluoro-4-[3-((R)-2-methyl-pyrrolidin-1-yl)-propoxy]-phenyl}-4,5-dihydro-2H-pyridazin-3-one], the melting point fell in the range of 132 to 133 °C. For the same compound, the inhibition constant (Ki) in series [1] (Table B, read-out: rat H3 Ki) was 0.1 to 100 nM. The compound further returned a Ki in series [2] (Table B) of 0.1 to 100 nM.

The compound `COCn1ncc(-c2ccc(OCCCN3CCC[C@H]3C)cc2)cc1=O` [Example 224, 2-Methoxymethyl-5-{4-[3-((R)-2-methyl-pyrrolidin-1-yl)-propoxy]-phenyl}-2H-pyridazin-3-one] had a melting point of 183 to 185 °C. Besides, in series [1] (Table B, read-out: rat H3 Ki), the Ki was 0.1 to 100 nM. In series [2] (Table B), the Ki lay in the range of 0.1 to 100 nM.

Consider `O=C1CC(c2ccccn2)C(c2ccc(OC3CCN(C4CCC4)CC3)cc2)=NN1` (stereo not drawn) [Example 114, 6-[4-(1-Cyclobutyl-piperidin-4-yloxy)-phenyl]-5-pyridin-2-yl-4,5-dihydro-2H-pyridazin-3-one], for which the melting point is 199 °C (dec.). In addition, the inhibition constant (Ki) in series [1] (Table B, read-out: rat H3 Ki) is 0.1 to 100 nM. Moreover, in series [2] (Table B), the Ki was 0.1 to 100 nM.

With `C[C@H](COc1ccc(C2=NNC(=O)C3CC23)cc1)CN1CCC[C@H]1C` (stereo partly drawn) [Example 245], the melting point lay within 112 to 115 °C. Also, the Ki in series [1] (Table B, read-out: rat H3 Ki) was 0.1 to 100 nM. In series [2] (Table B), this compound registered a Ki of 0.1 to 100 nM.

For the compound `O=C1NN=C(c2ccc(OC3CCN(C4CCC4)CC3)cc2)C2CCCC12` (stereo not drawn) [Example 174, 4-[4-(1-Cyclobutyl-piperidin-4-yloxy)-phenyl)-2,4a,5,6,7,7a-hexahydro-cyclopenta[d]pyridazin-1-one], the melting point is > 255 °C (dec.). Moreover, the Ki in series [1] (Table B, read-out: rat H3 Ki) is 0.1 to 100 nM. For the same compound, in series [2] (Table B), the Ki fell in the range of 0.1 to 100 nM.

Compound `C[C@H](COc1ccc(-c2cn[nH]c(=O)c2)cc1)CN1CCCCC1` [Example 227, 5-[4-((S)-2-Methyl-3-piperidin-1-yl-propoxy)-phenyl]-2H-pyridazin-3-one] gave a melting point of 145 to 148 °C. In addition, the Ki in series [1] (Table B, read-out: rat H3 Ki) is 0.1 to 100 nM. The same compound displayed a Ki in series [2] (Table B) of 0.1 to 100 nM.

`O=c1ccc(-c2cc(F)c(OC3CCN(C4CCC4)CC3)c(F)c2)n[nH]1` [Example 188, 6-[4-(1-Cyclobutyl-piperidin-4-yloxy)-3,5-difluoro-phenyl]-2H-pyridazin-3-one] registered a melting point of 195 to 197 °C. Also, the Ki in series [1] (Table B, read-out: rat H3 Ki) lay within 0.1 to 100 nM. Further, the Ki in series [2] (Table B) was 0.1 to 100 nM.

For the compound `C[C@@H]1CCCN1CCCOc1ccc(C2=NNC(=O)CC2(C)C)cc1` [Example 182, 5,5-Dimethyl-6-{4-[3-((R)-2-methyl-pyrrolidin-1-yl)-propoxy]-phenyl}-4,5-dihydro-2H-pyridazin-3-one], the melting point was in the range of 118 to 121 °C. In series [1] (Table B, read-out: rat H3 Ki), the Ki lay in the range of 0.1 to 100 nM. The Ki in series [2] (Table B) was in the range of 0.1 to 100 nM.

The values are drawn from patent US8586588B2, “Aryl pyridazinone derivatives and their use as H3 receptor ligands” (Cephalon, Inc., priority 2006, dated 2013).
